Test results from the CheMixHub viscosity set.

Test: xn = mol fraction of the nth substance listed

CCOCCOCCOCCO + ClC(Cl)=C(Cl)Cl
298.15 K, 101.33 kPa
Conditions	viscosity [mPa·s]
x1 = 0.0072	0.863
x1 = 0.0185	0.892
x1 = 0.0339	0.931
x1 = 0.0489	0.969
x1 = 0.0609	1.008
x1 = 0.0867	1.081
x1 = 0.1081	1.154
x1 = 0.1487	1.29
x1 = 0.1926	1.459
x1 = 0.2354	1.634
x1 = 0.2903	1.893
x1 = 0.3204	2.052
x1 = 0.3495	2.207
x1 = 0.3887	2.429
x1 = 0.4239	2.631
x1 = 0.4633	2.863
x1 = 0.5019	3.105
x1 = 0.5442	3.384
x1 = 0.5861	3.665
x1 = 0.6345	4.013
x1 = 0.6893	4.413
x1 = 0.7441	4.852
x1 = 0.8008	5.303
x1 = 0.8471	5.684
x1 = 0.9061	6.191
x1 = 0.9387	6.486
x1 = 0.9502	6.589
x1 = 0.9795	6.871

NNc1ccccc1 + COc1ccccc1O
303.15 K, 101 kPa
Conditions	viscosity [mPa·s]
x1 = 0.1	5.95
x1 = 0.2	8.21
x1 = 0.3	10.92
x1 = 0.4	13.15
x1 = 0.45	14.65
x1 = 0.5	15.26
x1 = 0.6	15.77
x1 = 0.667	16.06
x1 = 0.7	15.54
x1 = 0.8	14.08
x1 = 0.9	12.33

CCCOCCO + CC(C)O
298.15 K, 101.33 kPa
Conditions	viscosity [mPa·s]
x1 = 0.0175	2.056
x1 = 0.0326	2.039
x1 = 0.0724	2.009
x1 = 0.0909	1.994
x1 = 0.1266	1.98
x1 = 0.1696	1.971
x1 = 0.2052	1.967
x1 = 0.249	1.967
x1 = 0.295	1.97
x1 = 0.3499	1.977
x1 = 0.398	1.993
x1 = 0.4072	1.997
x1 = 0.4661	2.019
x1 = 0.5167	2.041
x1 = 0.556	2.061
x1 = 0.6058	2.084
x1 = 0.6612	2.119
x1 = 0.7297	2.159
x1 = 0.7751	2.192
x1 = 0.8315	2.23
x1 = 0.8979	2.275
x1 = 0.9565	2.318

NNc1ccccc1 + Oc1ccccc1Cl
323.1 K, 101 kPa
Conditions	viscosity [mPa·s]
x1 = 0.1706	3.51
x1 = 0.401	7.16
x1 = 0.508	8.27
x1 = 0.536	8.18
x1 = 0.781	6.955

C[N+](C)(C)C.NCC(=O)[O-] + OCCO
303 K, 101 kPa
Conditions	viscosity [mPa·s]
x1 = 0.044	46.5
x1 = 0.095	75.2
x1 = 0.15	103.9
x1 = 0.22	138
x1 = 0.39	185.9
x1 = 0.63	251.5

N#Cc1ccccc1 + ClC(Cl)(Cl)Cl
viscosity [mPa·s], 101 kPa
Conditions	293.15 K	298.15 K	303.15 K	313.15 K	323.15 K
x1 = 0.005	0.986	0.91	0.845	0.748	0.669
x1 = 0.009	1.008	0.934	0.871	0.772	0.694
x1 = 0.045	1.005	0.929	0.863	0.769	0.691

CCCCn1cc[n+](C)c1.[Cl-] + O
101 kPa
Conditions	viscosity [mPa·s]
293.15 K, x2 = 0.4982	235.1
293.15 K, x2 = 0.6132	85.9
303.15 K, x2 = 0.5535	83.3
308.15 K, x2 = 0.4982	92.5

N#Cc1ccccc1 + COc1ccccc1
viscosity [mPa·s], 101.33 kPa
Conditions	x2 = 0.0923	x2 = 0.1792	x2 = 0.2764	x2 = 0.3719	x2 = 0.4735	x2 = 0.6068	x2 = 0.7036	x2 = 0.808	x2 = 0.8989
293.15 K	1.315	1.3	1.27	1.235	1.191	1.164	1.149	1.134	1.119
298.15 K	1.226	1.201	1.181	1.142	1.122	1.088	1.079	1.056	1.036

NNc1ccccc1 + Oc1ccccc1
323.1 K, 101 kPa
Conditions	viscosity [mPa·s]
x1 = 0.181	5.25
x1 = 0.369	7.49
x1 = 0.466	8.02
x1 = 0.502	8.2
x1 = 0.595	8.05
x1 = 0.781	6.56

CC(C)C(C)C + CCCCCCCCCCCCCCCC
298 K, 101.33 kPa
Conditions	viscosity [mPa·s]
x1 = 0.0846	2.773
x1 = 0.2077	2.325
x1 = 0.2966	2.045
x1 = 0.3988	1.74
x1 = 0.4973	1.432
x1 = 0.6023	1.135
x1 = 0.7034	0.8764
x1 = 0.8019	0.6623
x1 = 0.9002	0.4751

CCCCOCCCOCCCO + CCO
viscosity [mPa·s], 101.33 kPa
Conditions	298.15 K	308.15 K	318.15 K
x1 = 0.05	1.3	1.074	0.896
x1 = 0.1	1.505	1.227	1.015
x1 = 0.15	1.717	1.386	1.137
x1 = 0.2	1.927	1.541	1.256
x1 = 0.25	2.135	1.696	1.369
x1 = 0.3	2.362	1.858	1.497
x1 = 0.35	2.562	2.003	1.597
x1 = 0.4001	2.755	2.14	1.696
x1 = 0.4499	2.94	2.265	1.79
x1 = 0.4999	3.121	2.39	1.879
x1 = 0.5499	3.292	2.51	1.956
x1 = 0.5997	3.453	2.622	2.039
x1 = 0.6501	3.608	2.724	2.114
x1 = 0.6998	3.756	2.821	2.182
x1 = 0.7499	3.899	2.91	2.24
x1 = 0.7999	4.018	2.998	2.306
x1 = 0.8499	4.147	3.088	2.363
x1 = 0.8997	4.271	3.158	2.423
x1 = 0.9498	4.386	3.233	2.466

N#Cc1ccccc1 + CC(C)(C)O
viscosity [mPa·s], 101.33 kPa
Conditions	x1 = 0.0567	x1 = 0.1542	x1 = 0.2837	x1 = 0.3997	x1 = 0.4923	x1 = 0.5993	x1 = 0.7289	x1 = 0.8283	x1 = 0.8923
303.15 K	2.895	2.017	1.578	1.365	1.262	1.203	1.142	1.121	1.114
308.15 K	2.311	1.696	1.368	1.223	1.137	1.094	1.043	1.034	1.028
313.15 K	1.811	1.429	1.187	1.072	1.021	1.001	0.98	0.962	0.951

CCCCn1cc[n+](C)c1.[Cl-] + CC#N
Conditions	viscosity [mPa·s]
308.15 K, 101 kPa, x2 = 0.7003	8.47

CC(O)CN (stereo not drawn) + O
viscosity [mPa·s]
Conditions	293.15 K	298.15 K	303.15 K	308.15 K	313.15 K	318.15 K	323.15 K
101 kPa, x1 = 0.01	–	–	–	–	–	0.7225	–
101 kPa, x1 = 0.06	–	–	–	–	–	1.155	–
101 kPa, x1 = 0.5995	–	–	–	–	12.85	–	–
101.3 kPa, x1 = 0.0126	1.228	1.03	0.894	0.781	0.682	–	0.573
101.3 kPa, x1 = 0.026	1.488	1.273	1.122	0.99	0.868	–	0.72
101.3 kPa, x1 = 0.0565	2.334	1.985	1.721	1.493	1.299	–	1.049

Nc1cccc2ccccc12 + CCCCO
viscosity [mPa·s], 101 kPa
Conditions	x1 = 0.03572	x1 = 0.06889	x1 = 0.1289	x1 = 0.1817	x1 = 0.2285	x1 = 0.2702	x1 = 0.3076
293.15 K	3.082	3.202	3.539	3.906	4.311	4.724	5.193
303.15 K	2.355	2.427	2.641	2.879	3.134	3.39	3.681
313.15 K	1.828	1.878	2.019	2.186	2.355	2.532	2.719
323.15 K	1.456	1.494	1.596	1.718	1.839	1.965	2.097

CC(C)C(C)C + CCCCCCCCCCCCCC
298 K, 101.33 kPa
Conditions	viscosity [mPa·s]
x1 = 0.1	1.884
x1 = 0.2006	1.669
x1 = 0.3044	1.451
x1 = 0.4033	1.246
x1 = 0.503	1.051
x1 = 0.6031	0.8719
x1 = 0.701	0.7123
x1 = 0.8016	0.5711
x1 = 0.9008	0.4356

CCCOCCO + CCCCCO
298.15 K, 101.33 kPa
Conditions	viscosity [mPa·s]
x1 = 0.0215	3.463
x1 = 0.0339	3.418
x1 = 0.0569	3.355
x1 = 0.0878	3.254
x1 = 0.1148	3.179
x1 = 0.1461	3.103
x1 = 0.1776	3.025
x1 = 0.2194	2.928
x1 = 0.2669	2.847
x1 = 0.327	2.776
x1 = 0.3773	2.72
x1 = 0.4289	2.667
x1 = 0.4842	2.61
x1 = 0.4911	2.608
x1 = 0.5387	2.574
x1 = 0.5721	2.548
x1 = 0.61	2.524
x1 = 0.6569	2.493
x1 = 0.7066	2.458
x1 = 0.7368	2.441
x1 = 0.7698	2.426
x1 = 0.8114	2.404
x1 = 0.8483	2.389
x1 = 0.8888	2.374
x1 = 0.9244	2.363
x1 = 0.963	2.353
x2 = 0.0102	2.35

CCCOCCO + OCCOCCOCCO
101 kPa
Conditions	viscosity [mPa·s]
293.15 K, x1 = 0.0477	37.18
293.15 K, x1 = 0.1028	32.98
293.15 K, x1 = 0.2026	26.12
293.15 K, x1 = 0.3116	19.86
293.15 K, x1 = 0.397	15.84
293.15 K, x1 = 0.4561	13.47
293.15 K, x1 = 0.4963	12.06
293.15 K, x1 = 0.549	10.39
293.15 K, x1 = 0.5885	9.266
293.15 K, x1 = 0.6941	6.794
293.15 K, x1 = 0.8011	4.892
293.15 K, x1 = 0.9015	3.544
293.15 K, x1 = 0.9316	3.208
298.15 K, x1 = 0.0552	30.77
298.15 K, x1 = 0.1173	26.96
298.15 K, x1 = 0.2033	22.23
298.15 K, x1 = 0.3039	17.54
298.15 K, x1 = 0.4049	13.68
298.15 K, x1 = 0.4555	12.02
298.15 K, x1 = 0.5186	10.2
298.15 K, x1 = 0.5413	9.595
298.15 K, x1 = 0.591	8.373
298.15 K, x1 = 0.6905	6.309
298.15 K, x1 = 0.7968	4.592
298.15 K, x1 = 0.8962	3.38
298.15 K, x1 = 0.9323	3.003
303.15 K, x1 = 0.0529	26.52
303.15 K, x1 = 0.1142	23.47
303.15 K, x1 = 0.2041	19.36
303.15 K, x1 = 0.2979	15.66
303.15 K, x1 = 0.4027	12.28
303.15 K, x1 = 0.4522	10.91
303.15 K, x1 = 0.4952	9.838
303.15 K, x1 = 0.5507	8.582
303.15 K, x1 = 0.5939	7.697
303.15 K, x1 = 0.6941	5.899
303.15 K, x1 = 0.7987	4.346
303.15 K, x1 = 0.9027	3.083
303.15 K, x1 = 0.9431	2.664
